Experiments:
MCF-7 cells = assay: MTT cell viability assay, MCF-7; format: cell-based, human; details: Homo sapiens, MCF7, 72 h, 72 h treatment
Protocol: (§1) The antiproliferative activity of the synthesized compounds was evaluated by the 3-(4,5-dimethylthiazol-2-yl)-2,5-diphenyl tetrazolium bromide (MTT) cell viability assay. Two types of breast cancer cell lines—namely MCF-7, which has estrogen and progesterone receptors, and MDA-MB-231, which is triple negative—were used, in addition to a colon cancer cell line (HCT-116).
(§2) The target products 3a–o were evaluated for their antiproliferative activity using the MTT viability assay of the MCF-7, MDA-MB-231 and HCT-116 cell lines (in triplicate) on at least three independent occasions for the determination of the reported mean values.
(§3) The three human tumor cell lines MCF-7, MDA-MB-231 and HCT-116 were cultured in Dulbecco’s Modified Eagle’s Medium (DMEM) with 10% fetal bovine serum, 2 mM L-glutamine and 100 µg/mL penicillin/streptomycin. The cells were maintained at 37 °C in 5% CO2 in a humidified incubator. All of the cells were sub-cultured 3 times/week by trypsinization using TrypLE Express (1×).
(§4) In order to calculate the relative IC50 values, the antiproliferative effect of compounds 3a–o was tested in three cancer cell lines (MCF-7, MDA-MB-231, HCT-116) and normal epithelial embryonic kidney cells (HEK-293) using the MTT viability assay. The cells were seeded in 96-well plates at a density of 10 × 10^3 cells/mL, in a total volume of 200 µL per well. In total, 0.1% DMSO was used as a vehicle control. […] The culture medium was then removed, and the cells were washed with phosphate-buffered saline (PBS), and 100 µL MTT was added (for a final concentration of 5 mg/mL MTT). The cells were incubated for 4 h in darkness at 37 °C. Next, 200 µL DMSO was added to each well, and the cells were maintained at room temperature in darkness for 20 min. The absorbance was detected with a microplate reader at 570 nm. The results were expressed as a percentage of viability relative to the vehicle control (100%). The dose-response curves were plotted, and the IC50 values were obtained using Prism software (GraphPad Software, Inc., La Jolla, CA, USA). All of the experiments were repeated in three independent experiments.

MDA-MB-231 cells = assay: MTT cell viability assay, MDA-MB-231; format: cell-based; details: Homo sapiens, 72 h treatment
Protocol: as §1, §2, §3, §4

HCT-116 cells = assay: MTT cell viability assay, HCT-116; format: cell-based; details: Homo sapiens, 72 h treatment
Protocol: as §1, §2, §3, §4

[1] = Zebrafish embryo mortality/toxicity; format: in vivo; details: wild-type, in vivo; zebrafish embryos, overnight exposure, 0.5 to 1000 µM; mean of three biological replicates ± standard deviation
Protocol: (§5) The zebrafish embryos were obtained by natural pairwise breeding, and were treated essentially as described previously.
(§6) The compounds were dissolved in dimethylsulfoxide (DMSO) in order to prepare a stock concentration of 10 mM. The embryos treated with 0.10% DMSO (v/v) served as the negative controls.
(§7) The fish were kept following the national and international guidelines for the care and use of laboratory animals. The fertilized eggs were obtained by the natural pairwise breeding of adult fish. The approval of the Ethics Committee for the use and care of laboratory animals was not needed, as zebrafish larvae less than 5 days post fertilization were used.
(§8) A stock solution of 50 mM was prepared by dissolving the compounds in dimethyl sulfoxide (DMSO). At least 30 fertilized eggs were sorted and placed in 60-mm sterile glass Petri dishes. A serial dilution of the compounds was prepared by adding the required amount of the compound directly into 5 mL water, and the zebrafish embryos were then exposed to serial dilutions (0.5 to 1000 µM) of each compound overnight. The number of dead and living embryos were counted after the overnight exposure.

zebrafish embryos [2] = assay: Zebrafish embryo mortality/toxicity; format: in vivo; details: maximum concentration tested 1 mM, versus DMSO control
Protocol: as §5, §6, §7, §8

zebrafish embryos [3] = assay: Zebrafish embryo imaging (morphology, teratogenicity); format: in vivo; details: 10 µM, embryos at 48 hpf
From the text: The treated embryos had cardiac edema, craniofacial defects, tail lesions, and a delay in embryonic development. These observations are consistent with the findings in the literature.
A Zeiss Observer D1 inverted microscope using Zeiss ZEN software was used to capture the images of the live zebrafish embryos.
Figure 6 Representative images of the zebrafish embryos 48 hpf (A) control or (B) treated.

COC(=O)CNC(=O)CNc1nc(Nc2ccc(Cl)cc2)nc(N2CCOCC2)n1 [Compound 3b, Methyl (4-((4-chlorophenyl)amino)-6-morpholino-1,3,5-triazin-2-yl) glycylglycinate]
IC50 (MCF-7 cells): 6.18 ± 0.46 µM
IC50 (MDA-MB-231 cells): > 50 µM
IC50 (HCT-116 cells): > 50 µM
LC50 [1]: > 1000 µM
toxicity / mortality in zebrafish embryos (zebrafish embryos [2]): did not show any toxicity

COC(=O)CNC(=O)CNc1nc(Nc2ccc(OC)cc2)nc(N2CCOCC2)n1 [Compound 3c, Methyl (4-((4-methoxyphenyl)amino)-6-morpholino-1,3,5-triazin-2-yl) glycylglycinate]
IC50 (MCF-7 cells): 13.5 ± 1.01 µM
IC50 (MDA-MB-231 cells): > 50 µM
IC50 (HCT-116 cells): > 50 µM
LC50 [1]: > 1000 µM
toxicity / mortality in zebrafish embryos (zebrafish embryos [2]): did not show any toxicity

COC(=O)C(C)NC(=O)CNc1nc(Nc2ccccc2)nc(N2CCOCC2)n1 (stereo not drawn) [Compound 3d, Methyl (4-morpholino-6-(phenylamino)-1,3,5-triazin-2-yl) glycylalaninate]
IC50 (MCF-7 cells): 3.57 ± 0.81 µM
IC50 (MDA-MB-231 cells): 16.2 ± 0.63 µM
IC50 (HCT-116 cells): > 50 µM
LC50 [1]: > 1000 µM
toxicity / mortality in zebrafish embryos (zebrafish embryos [2]): did not show any toxicity

COC(=O)C(C)NC(=O)CNc1nc(Nc2ccc(Cl)cc2)nc(N2CCOCC2)n1 (stereo not drawn) [Compound 3e, Methyl (4-((4-chlorophenyl)amino)-6-morpholino-1,3,5-triazin-2-yl) glycylalaninate]
IC50 (MCF-7 cells): 4.35 ± 2.86 µM
IC50 (MDA-MB-231 cells): 8.2 ± 1.68 µM
IC50 (HCT-116 cells): > 50 µM
LC50 [1]: 2.37 ± 0.27 µM

COC(=O)C(C)NC(=O)CNc1nc(Nc2ccc(OC)cc2)nc(N2CCOCC2)n1 (stereo not drawn) [Compound 3f, Methyl (4-((4-methoxyphenyl)amino)-6-morpholino-1,3,5-triazin-2-yl) glycylalaninate]
IC50 (MCF-7 cells): 8.02 ± 0.5 µM
IC50 (MDA-MB-231 cells): 28.1 ± 1.07 µM
IC50 (HCT-116 cells): > 50 µM
LC50 [1]: 28.4 ± 1.18 µM

COC(=O)C(NC(=O)CNc1nc(Nc2ccc(Cl)cc2)nc(N2CCOCC2)n1)C(C)C (stereo not drawn) [Compound 3g, Methyl (4-((4-chlorophenyl)amino)-6-morpholino-1,3,5-triazin-2-yl) glycylvalinate]
IC50 (MCF-7 cells): 13.2 ± 0.6 µM
IC50 (MDA-MB-231 cells): 24.1 ± 2.61 µM
IC50 (HCT-116 cells): 12.2 ± 1.74 µM
LC50 [1]: 132.1 ± 0.86 µM

COC(=O)CNC(=O)CNc1nc(Nc2ccccc2)nc(N2CCCCC2)n1 [Compound 3h, Methyl (4-(phenylamino)-6-(piperidin-1-yl)-1,3,5-triazin-2-yl) glycylglycinate]
IC50 (MCF-7 cells): 19.64 ± 0.08 µM
IC50 (MDA-MB-231 cells): > 50 µM
IC50 (HCT-116 cells): 15.2 ± 2.04 µM
LC50 [1]: 10.1 ± 0.43 µM

COC(=O)CNC(=O)CNc1nc(Nc2ccc(Cl)cc2)nc(N2CCCCC2)n1 [Compound 3i, Methyl (4-((4-chlorophenyl)amino)-6-(piperidin-1-yl)-1,3,5-triazin-2-yl) glycylglycinate]
IC50 (MCF-7 cells): 8.37 ± 0.77 µM
IC50 (MDA-MB-231 cells): 22.3 ± 1.87 µM
IC50 (HCT-116 cells): 18.5 ± 1.45 µM
LC50 [1]: 6.22 ± 0.39 µM

COC(=O)CNC(=O)CNc1nc(Nc2ccc(OC)cc2)nc(N2CCCCC2)n1 [Compound 3j, Methyl (4-((4-methoxyphenyl)amino)-6-(piperidin-1-yl)-1,3,5-triazin-2-yl) glycylglycinate]
IC50 (MCF-7 cells): 25.3 ± 2.75 µM
IC50 (MDA-MB-231 cells): > 50 µM
IC50 (HCT-116 cells): 23.4 ± 3.43 µM
LC50 [1]: 80.15 ± 0.59 µM

COC(=O)C(C)NC(=O)CNc1nc(Nc2ccccc2)nc(N2CCCCC2)n1 (stereo not drawn) [Compound 3k, Methyl (4-(phenylamino)-6-(piperidin-1-yl)-1,3,5-triazin-2-yl) glycylalaninate]
IC50 (MCF-7 cells): 15.3 ± 2.49 µM
IC50 (MDA-MB-231 cells): 13.3 ± 1.12 µM
IC50 (HCT-116 cells): > 50 µM
LC50 [1]: 5.98 ± 0.53 µM

COC(=O)C(C)NC(=O)CNc1nc(Nc2ccc(Cl)cc2)nc(N2CCCCC2)n1 (stereo not drawn) [Compound 3l, Methyl (4-((4-chlorophenyl)amino)-6-(piperidin-1-yl)-1,3,5-triazin-2-yl) glycylalaninate]
IC50 (MCF-7 cells): 1.46 ± 0.69 µM
IC50 (MDA-MB-231 cells): 8.31 ± 0.69 µM
IC50 (HCT-116 cells): 7.06 ± 0.27 µM
LC50 [1]: 4.25 ± 0.38 µM

COC(=O)CNC(=O)CCNc1nc(Nc2ccc(Cl)cc2)nc(N2CCOCC2)n1 [Compound 3m, Methyl (3-((4-((4-chlorophenyl)amino)-6-morpholino-1,3,5-triazin-2-yl)amino)propanoyl) glycinate]
IC50 (MCF-7 cells): 19.7 ± 1.48 µM
IC50 (MDA-MB-231 cells): 26.7 ± 1.32 µM
IC50 (HCT-116 cells): > 50 µM
LC50 [1]: 5.58 ± 0.95 µM

COC(=O)C(NC(=O)CCNc1nc(Nc2ccc(Cl)cc2)nc(N2CCOCC2)n1)C(C)C (stereo not drawn) [Compound 3n, Methyl (3-((4-((4-chlorophenyl)amino)-6-morpholino-1,3,5-triazin-2-yl)amino)propanoyl) valinate]
IC50 (MCF-7 cells): 2.35 ± 1.06 µM
IC50 (MDA-MB-231 cells): 8.48 ± 1.71 µM
IC50 (HCT-116 cells): 14.4 ± 1.37 µM
LC50 [1]: 5.84 ± 1.09 µM

COC(=O)C(NC(=O)CCNc1nc(Nc2ccc(Cl)cc2)nc(N2CCCCC2)n1)C(C)C (stereo not drawn) [Compound 3o, Methyl (3-((4-((4-chlorophenyl)amino)-6-(piperidin-1-yl)-1,3,5-triazin-2-yl)amino)propanoyl) valinate]
IC50 (MCF-7 cells): 4.64 ± 1.58 µM
IC50 (MDA-MB-231 cells): 15.7 ± 2.21 µM
IC50 (HCT-116 cells): 18.9 ± 2.82 µM
LC50 [1]: 1.97 ± 0.27 µM

CC/C(=C(\c1ccccc1)c1ccc(OCCN(C)C)cc1)c1ccccc1 [Tamoxifen, reference compound]
teratogenic effect in zebrafish embryos (zebrafish embryos [3]): severe teratogenic effect

— article PMC7926980, “The Antiproliferative and Apoptotic Effect of a Novel Synthesized S-Triazine Dipeptide Series, and Toxicity Screening in Zebrafish Embryos” (Molecules, 2021)
